From PubChem BioAssay (NCI)
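Five compound concentrations were applied to cells in 96-well plates for 48 hours; endpoints were derived by simple linear interpolation of the resulting dose-response curve. TGI is the concentration that stops growth completely.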

Experiments:
Assay in all cases: NCI-60 cell line screen, 48 h
[1] = tested on: HOP-92 NSCLC
[2] = tested on: SK-MEL-28 melanoma
[3] = tested on: U251 CNS
[4] = tested on: NCI-H460 lung
[5] = tested on: SW-620 colon
[6] = tested on: SNB-19 CNS
[7] = tested on: MOLT-4 leukemia
[8] = tested on: UO-31 renal
[9] = tested on: HOP-62 NSCLC
[10] = tested on: HCT-116 colon
[11] = tested on: SNB-75 CNS
[12] = tested on: CCRF-CEM leukemia
[13] = tested on: MDA-N
[14] = tested on: DU-145 prostate
[15] = tested on: NCI/ADR-RES ovarian
[16] = tested on: MDA-MB-231 breast
[17] = tested on: MDA-MB-435
[18] = tested on: T-47D breast

| Compound | TGI [1] | TGI [2] | TGI [3] | TGI [4] | TGI [5] | TGI [6] | TGI [7] | TGI [8] | TGI [9] | TGI [10] | TGI [11] | TGI [12] | TGI [13] | TGI [14] | TGI [15] | TGI [16] | TGI [17] | TGI [18] |
| --- | --- | --- | --- | --- | --- | --- | --- | --- | --- | --- | --- | --- | --- | --- | --- | --- | --- | --- |
| C=CCN(C)CN(C)c1nc(N(C)C)nc(N(C)C)n1 | > 100 µM | > 100 µM | > 100 µM | > 100 µM | > 100 µM | > 100 µM | > 100 µM | > 100 µM | > 100 µM | > 100 µM | > 100 µM | > 100 µM | – | – | – | – | – | – |
| O=C=NCCCCCCN1C(=O)N2C(c3ccccc3)N(CCCCCCN=C=O)C(=O)N2C1c1ccccc1 (centres undefined) | > 100 µM | > 100 µM | > 100 µM | > 100 µM | > 100 µM | > 100 µM | > 100 µM | > 100 µM | > 100 µM | > 100 µM | > 100 µM | > 100 µM | > 100 µM | > 100 µM | > 100 µM | > 100 µM | > 100 µM | – |
| COc1ccc(C2SC(C)C(=O)N2c2nc(-c3nc(-c4ccc(Cl)cc4)cs3)cs2)cc1 (centres undefined) | > 100 µM | – | > 100 µM | > 100 µM | > 100 µM | > 100 µM | > 100 µM | > 100 µM | > 100 µM | > 100 µM | > 100 µM | > 100 µM | > 100 µM | – | > 100 µM | > 100 µM | > 100 µM | > 100 µM |
| CCOC(=O)c1ccc(-n2c(SCC)nc3sc(C)c(C)c3c2=O)cc1 | > 100 µM | > 100 µM | > 100 µM | > 100 µM | > 100 µM | > 100 µM | – | > 100 µM | > 100 µM | > 100 µM | > 100 µM | > 100 µM | – | – | – | – | – | – |
| Cc1ccc(S(=O)(=O)NC(=O)Nc2ccc(S(N)(=O)=O)cc2S(N)(=O)=O)cc1 | > 100 µM | > 100 µM | > 100 µM | – | > 100 µM | > 100 µM | > 100 µM | > 100 µM | > 100 µM | > 100 µM | > 100 µM | > 100 µM | > 100 µM | > 100 µM | > 100 µM | > 100 µM | > 100 µM | – |
| O=c1cc(-c2ccccc2)oc2cc(OCCSCCCCCCCCCCSCCOc3ccc4c(=O)cc(-c5ccccc5)oc4c3)ccc12 | > 100 µM | > 100 µM | > 100 µM | – | > 100 µM | > 100 µM | > 100 µM | > 100 µM | > 100 µM | > 100 µM | > 100 µM | > 100 µM | – | – | – | – | – | – |
| COc1cc(/C=C2/C(=O)N(C(=O)c3ccc(Cl)cc3)N=C2C)cc(OC)c1OC | > 100 µM | > 100 µM | > 100 µM | > 100 µM | > 100 µM | > 100 µM | > 100 µM | > 100 µM | – | > 100 µM | – | > 100 µM | – | – | – | – | – | – |
| Cc1ccc(O)c(C(=O)CCCC(=O)c2cc(C)ccc2O)c1 | > 100 µM | > 100 µM | > 100 µM | > 100 µM | > 100 µM | > 100 µM | > 100 µM | > 100 µM | > 100 µM | – | > 100 µM | > 100 µM | – | – | – | – | – | – |
| Cc1cn(C2CC(N)C(C(=O)O)O2)c(=O)[nH]c1=O (centres undefined) | > 100 µM | – | > 100 µM | > 100 µM | > 100 µM | > 100 µM | > 100 µM | > 100 µM | > 100 µM | > 100 µM | > 100 µM | > 100 µM | > 100 µM | > 100 µM | > 100 µM | > 100 µM | > 100 µM | – |
| COc1cc2c(cc1OC)C(=O)C(C1=C(SC(=N)N)C(=O)c3cc(OC)c(OC)cc31)C2 (centres undefined) | – | > 100 µM | > 100 µM | > 100 µM | > 100 µM | > 100 µM | > 100 µM | > 100 µM | > 100 µM | > 100 µM | > 100 µM | > 100 µM | – | – | – | – | – | – |
| COC(=O)c1ccccc1/C=C1\Cc2cc(C)c(C)cc2C1=O | 59.2 µM | > 100 µM | 96.8 µM | > 100 µM | > 100 µM | > 100 µM | > 100 µM | > 100 µM | 85.8 µM | > 100 µM | 81.3 µM | > 100 µM | > 100 µM | > 100 µM | > 100 µM | – | > 100 µM | > 100 µM |
| NCCN1CC2CCC(CC2)C1 | – | > 10 µM | > 10 µM | > 10 µM | > 10 µM | > 10 µM | > 10 µM | > 10 µM | > 10 µM | > 10 µM | > 10 µM | > 10 µM | – | > 10 µM | > 10 µM | > 10 µM | > 10 µM | > 10 µM |
| Cn1ncnc1CCc1ccccc1 | > 100 µM | > 100 µM | > 100 µM | > 100 µM | > 100 µM | – | > 100 µM | > 100 µM | > 100 µM | > 100 µM | > 100 µM | > 100 µM | – | – | – | – | – | – |
| O=c1cc(-c2ccc(Cl)cc2)oc2cc(OCCCOc3ccc4c(=O)cc(-c5ccc(Cl)cc5)oc4c3)ccc12 | > 100 µM | > 100 µM | > 100 µM | > 100 µM | > 100 µM | > 100 µM | > 100 µM | – | > 100 µM | > 100 µM | > 100 µM | > 100 µM | – | – | – | – | – | – |
| O=C(c1ccc(Br)cc1)n1c2ccc(Br)cc2c2nc3ccccc3nc21 | > 100 µM | > 100 µM | > 100 µM | > 100 µM | > 100 µM | > 100 µM | > 100 µM | > 100 µM | > 100 µM | > 100 µM | > 100 µM | > 100 µM | > 100 µM | > 100 µM | > 100 µM | – | > 100 µM | > 100 µM |
| C=C(Cl)C(=C)CCC(Cl)C(C)C (centres undefined) | > 100 µM | > 100 µM | > 100 µM | > 100 µM | > 100 µM | > 100 µM | > 100 µM | > 100 µM | > 100 µM | > 100 µM | – | > 100 µM | > 100 µM | > 100 µM | > 100 µM | > 100 µM | > 100 µM | – |
